How the values were obtained:
morningglory = test: Test B pre/postemergence morningglory; assay type: in vivo, Ipomoea hederacea
How it was run: (§1)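 Herbicidal effect was estimated by eye on a ten-point control scale after plants spent twelve to sixteen days in a greenhouse following soil or foliar treatment. Foliar sprays targeted plants at one to four leaves; all doses were formulated in a non-phytotoxic solvent with surfactant.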

rape = test: Test B pre/postemergence rape; assay type: in vivo, Brassica napus
How it was run: as §1

wild oat = test: Test B pre/postemergence wild oat; assay type: in vivo, Avena fatua
How it was run: as §1

purple nutsedge = test: Test B pre/postemergence purple nutsedge; assay type: in vivo, Cyperus rotundus
How it was run: as §1

sugar beet = test: Test B pre/postemergence sugar beet; assay type: in vivo, Beta vulgaris
How it was run: as §1

crabgrass = test: Test B pre/postemergence crabgrass; assay type: in vivo, Digitaria sanguinalis
How it was run: as §1

corn = test: Test B pre/postemergence corn; assay type: in vivo, Zea mays
How it was run: as §1

giant foxtail = test: Test B pre/postemergence giant foxtail; assay type: in vivo, Setaria faberii
How it was run: as §1

soybean = test: Test B pre/postemergence soybean; assay type: in vivo, Glycine max
How it was run: as §1

bedstraw = test: Test B pre/postemergence bedstraw; assay type: in vivo, Galium aparine; conditions: Preemergence
How it was run: as §1

cocklebur = test: Test B pre/postemergence cocklebur; assay type: in vivo, Xanthium strumarium
How it was run: as §1

pigweed = test: Test B pre/postemergence pigweed; assay type: in vivo, Amaranthus retroflexus
How it was run: as §1

blackgrass = test: Test B pre/postemergence blackgrass; assay type: in vivo, Alopecurus myosuroides
How it was run: as §1

wheat = test: Test B pre/postemergence wheat; assay type: in vivo, Triticum aestivum
How it was run: as §1

surinam grass = test: Test B pre/postemergence surinam grass; assay type: in vivo, Brachiaria decumbens
How it was run: as §1

velvetleaf = test: Test B pre/postemergence velvetleaf; assay type: in vivo, Abutilon theophrasti
How it was run: as §1

[1] = Postemergence, Rate 62 g/ha, scale of 0 to 10, 0 is no effect, 10 is complete control
[2] = Postemergence, Rate 125 g/ha, scale 0 to 10, 0 is no effect, 10 is complete control
[3] = Postemergence, Rate 500 g/ha, scale 0 to 10, 0 is no effect, 10 is complete control
[4] = Preemergence, Rate 62 g/ha, scale 0 to 10 (0 no effect, 10 complete control)
[5] = Preemergence, Rate 125 g/ha, scale 0 to 10, 0 is no effect, 10 is complete control
[6] = Preemergence, Rate 500 g/ha, scale of 0 to 10 where 0 is no effect and 10 is complete control
[7] = Rate 250 g/ha, Postemergence, scale of 0 to 10 where 0 is no effect and 10 is complete control

CCOCn1c(=O)on(C(=O)N(c2ccc(Cl)cc2)C(C)C)c1=O [Compound 534] was tested, and the “Morningglory plant response rating” value (morningglory; [1]) was 2, the “Morningglory plant response rating” value (morningglory; [2]) was 2 and the “Plant response rating, Morningglory” value (morningglory; [3]) was 3. The “Morningglory plant response rating” value (morningglory; [4]) was 0, the “Morningglory plant response rating” value (morningglory; [5]) was 0 and the “Morningglory plant response rating (0 to 10 scale)” value (morningglory; Preemergence, Rate 250 g/ha) was 2. The “Morningglory plant response rating” value (morningglory; [6]) was 0, the “Plant response rating, Morningglory” value (morningglory; [7]) was 2 and the “Rape plant response rating” value (rape; [1]) was 0. The “Rape plant response rating” value (rape; [2]) was 0, the “Plant response rating, Rape” value (rape; [3]) was 7 and the “Rape plant response rating” value (rape; [4]) was 2. For the same molecule, the “Rape plant response rating” value (rape; [5]) was 6, the “Rape plant response rating (0 to 10 scale)” value (rape; Preemergence, Rate 250 g/ha) was 6 and the “Plant response rating, Rape” value (rape; [7]) was 0. The “Wild oats plant response rating” value (wild oat; [1]) was 0, the “Wild oats plant response rating” value (wild oat; [2]) was 0 and the “Plant response rating, Wild oats” value (wild oat; [3]) was 3. The “Wild oats plant response rating” value (wild oat; [4]) was 3, the “Wild oats plant response rating” value (wild oat; [5]) was 8 and the “Wild oats plant response rating (0 to 10 scale)” value (wild oat; Preemergence, Rate 250 g/ha) was 9. For the same molecule, the “Plant response rating, Wild oats” value (wild oat; [7]) was 0, the “Nutsedge plant response rating” value (purple nutsedge; [1]) was 0 and the “Nutsedge plant response rating” value (purple nutsedge; [2]) was 2. The “Plant response rating, Nutsedge” value (purple nutsedge; [3]) was 2, the “Nutsedge plant response rating” value (purple nutsedge; [4]) was 0 and the “Nutsedge plant response rating” value (purple nutsedge; [5]) was 0. For the same molecule, the “Plant response rating, Nutsedge” value (purple nutsedge; [7]) was 2, the “Sugarbeets plant response rating” value (sugar beet; [1]) was 0 and the “Sugarbeets plant response rating” value (sugar beet; [2]) was 0. The “Plant response rating, Sugarbeets” value (sugar beet; [3]) was 2, the “Sugarbeets plant response rating” value (sugar beet; [4]) was 3 and the “Sugarbeets plant response rating” value (sugar beet; [5]) was 4. The “Sugarbeets plant response rating (0 to 10 scale)” value (sugar beet; Preemergence, Rate 250 g/ha) was 6, the “Plant response rating, Sugarbeets” value (sugar beet; [7]) was 3 and the “Crabgrass plant response rating” value (crabgrass; [2]) was 5. For the same molecule, the “Plant response rating, Crabgrass” value (crabgrass; [3]) was 8, the “Crabgrass plant response rating” value (crabgrass; [4]) was 9 and the “Crabgrass plant response rating” value (crabgrass; [5]) was 10. For the same molecule, the “Crabgrass plant response rating (0 to 10 scale)” value (crabgrass; Preemergence, Rate 250 g/ha) was 10, the “Crabgrass plant response rating” value (crabgrass; [6]) was 10 and the “Plant response rating, Crabgrass” value (crabgrass; [7]) was 4. For the same molecule, the “Corn plant response rating” value (corn; [1]) was 0, the “Corn plant response rating” value (corn; [2]) was 0 and the “Plant response rating, Corn” value (corn; [3]) was 0. The “Corn plant response rating” value (corn; [4]) was 0, the “Corn plant response rating” value (corn; [5]) was 0 and the “Corn plant response rating (0 to 10 scale)” value (corn; Preemergence, Rate 250 g/ha) was 3. For the same molecule, the “Corn plant response rating” value (corn; [6]) was 3, the “Plant response rating, Corn” value (corn; [7]) was 0 and the “Giant foxtail plant response rating” value (giant foxtail; [2]) was 3. The “Plant response rating, Giant foxtail” value (giant foxtail; [3]) was 8, the “Giant foxtail plant response rating” value (giant foxtail; [4]) was 9 and the “Giant foxtail plant response rating” value (giant foxtail; [5]) was 9. For the same molecule, the “Giant foxtail plant response rating (0 to 10 scale)” value (giant foxtail; Preemergence, Rate 250 g/ha) was 10, the “Giant foxtail plant response rating” value (giant foxtail; [6]) was 10 and the “Plant response rating, Giant foxtail” value (giant foxtail; [7]) was 4. For the same molecule, the “Soybean plant response rating” value (soybean; [2]) was 4, the “Plant response rating, Soybean” value (soybean; [3]) was 7 and the “Soybean plant response rating” value (soybean; [4]) was 0. For the same molecule, the “Soybean plant response rating” value (soybean; [5]) was 0, the “Soybean plant response rating (0 to 10 scale)” value (soybean; Preemergence, Rate 250 g/ha) was 0 and the “Plant response rating, Soybean” value (soybean; [7]) was 6. For the same molecule, the “Bedstraw plant response rating” value (bedstraw; Rate 62 g/ha, scale 0 to 10 (0 no effect, 10 complete control)) was 0, the “Bedstraw plant response rating” value (bedstraw; Rate 125 g/ha, scale 0 to 10, 0 is no effect, 10 is complete control) was 0 and the “Bedstraw plant response rating (0 to 10 scale)” value (bedstraw; Rate 250 g/ha) was 0. The “Cocklebur plant response rating” value (cocklebur; [1]) was 0, the “Cocklebur plant response rating” value (cocklebur; [2]) was 0 and the “Plant response rating, Cocklebur” value (cocklebur; [3]) was 0. The “Cocklebur plant response rating” value (cocklebur; [4]) was 0, the “Cocklebur plant response rating” value (cocklebur; [5]) was 0 and the “Cocklebur plant response rating (0 to 10 scale)” value (cocklebur; Preemergence, Rate 250 g/ha) was 0. The “Cocklebur plant response rating” value (cocklebur; [6]) was 0, the “Plant response rating, Cocklebur” value (cocklebur; [7]) was 0 and the “Redroot pigweed plant response rating” value (pigweed; [1]) was 0. The “Redroot pigweed plant response rating” value (pigweed; [2]) was 3, the “Plant response rating, Redroot pigweed” value (pigweed; [3]) was 7 and the “Redroot pigweed plant response rating” value (pigweed; [4]) was 0. For the same molecule, the “Redroot pigweed plant response rating” value (pigweed; [5]) was 0, the “Redroot pigweed plant response rating (0 to 10 scale)” value (pigweed; Preemergence, Rate 250 g/ha) was 0 and the “Plant response rating, Redroot pigweed” value (pigweed; [7]) was 3. For the same molecule, the “Blackgrass plant response rating” value (blackgrass; [1]) was 0, the “Blackgrass plant response rating” value (blackgrass; [2]) was 2 and the “Plant response rating, Blackgrass” value (blackgrass; [3]) was 7. For the same molecule, the “Blackgrass plant response rating” value (blackgrass; [4]) was 8, the “Blackgrass plant response rating” value (blackgrass; [5]) was 9 and the “Blackgrass plant response rating (0 to 10 scale)” value (blackgrass; Preemergence, Rate 250 g/ha) was 9. The “Plant response rating, Blackgrass” value (blackgrass; [7]) was 7, the “Wheat plant response rating” value (wheat; [1]) was 0 and the “Wheat plant response rating” value (wheat; [2]) was 0. For the same molecule, the “Plant response rating, Wheat” value (wheat; [3]) was 5, the “Wheat plant response rating” value (wheat; [4]) was 0 and the “Wheat plant response rating” value (wheat; [5]) was 0. The “Wheat plant response rating (0 to 10 scale)” value (wheat; Preemergence, Rate 250 g/ha) was 3, the “Plant response rating, Wheat” value (wheat; [7]) was 3 and the “B. signalgrass plant response rating” value (surinam grass; [1]) was 0. For the same molecule, the “B. signalgrass plant response rating” value (surinam grass; [2]) was 0, the “Plant response rating, B. signalgrass” value (surinam grass; [3]) was 6 and the “B. signalgrass plant response rating” value (surinam grass; [4]) was 9. For the same molecule, the “B. signalgrass plant response rating” value (surinam grass; [5]) was 9, the “B. signalgrass plant response rating (0 to 10 scale, 0 is no effect, 10 is complete control)” value (surinam grass; Preemergence, Rate 250 g/ha) was 9 and the “Plant response rating, B. signalgrass” value (surinam grass; [7]) was 0. For the same molecule, the “Velvetleaf plant response rating” value (velvetleaf; [1]) was 0, the “Velvetleaf plant response rating” value (velvetleaf; [2]) was 2 and the “Plant response rating, Velvetleaf” value (velvetleaf; [3]) was 2. For the same molecule, the “Velvetleaf plant response rating” value (velvetleaf; [4]) was 0, the “Velvetleaf plant response rating” value (velvetleaf; [5]) was 2 and the “Velvetleaf plant response rating (0 to 10 scale)” value (velvetleaf; Preemergence, Rate 250 g/ha) was 2. The “Velvetleaf plant response rating” value (velvetleaf; [6]) was 3 and the “Plant response rating, Velvetleaf” value (velvetleaf; [7]) was 2.

Source: patent US6737383B1, “Herbicidal oxadiazolidines” (priority 1999, dated 2004)
